{
  "source": "ChEMBL document CHEMBL3407455",
  "about": "“Discovery of highly potent, selective, and efficacious small molecule inhibitors of ERK1/2” (J Med Chem, 2015)",
  "key": {"in vivo [1]": {"assay": "in vivo", "conditions": "CD-1, mouse, plasma, po, 5 mg/kg"}, "in vivo [2]": {"assay": "in vivo", "conditions": "CD-1, mouse, po, 5 mg/kg"}, "in vitro": {"assay": "in vitro", "conditions": "dog, MDCK"}, "in vivo [3]": {"assay": "in vivo", "conditions": "CD-1, mouse, iv, 1 mg/kg"}, "in vivo [4]": {"assay": "in vivo", "conditions": "rat, iv, 1 mg/kg"}, "in vivo [5]": {"assay": "in vivo", "conditions": "dog, po, 5 mg/kg"}, "in vivo [6]": {"assay": "in vivo", "conditions": "cynomolgus monkey, iv, 2 mg/kg"}, "in vivo [7]": {"assay": "in vivo", "conditions": "nude, mouse, plasma, po, 100 mg/kg"}, "in vivo [8]": {"assay": "in vivo", "conditions": "nude, mouse, po, 100 mg/kg"}, "in vivo [9]": {"assay": "in vivo", "conditions": "nude, mouse, plasma, po, 30 mg/kg"}, "in vivo [10]": {"assay": "in vivo", "conditions": "nude, mouse, plasma, po, 150 mg/kg"}, "in vivo [11]": {"assay": "in vivo", "conditions": "cynomolgus monkey, po, 5 mg/kg"}, "in vivo [12]": {"assay": "in vivo", "conditions": "nude, mouse, po, 5 mg/kg"}, "in vivo [13]": {"assay": "in vivo", "conditions": "dog, po, 5 mg/kg", "remark": "listed apart in the source"}, "in vivo [14]": {"assay": "in vivo", "conditions": "dog, plasma, po, 5 mg/kg"}, "in vivo [15]": {"assay": "in vivo", "conditions": "dog, iv, 2 mg/kg"}, "in vivo [16]": {"assay": "in vivo", "conditions": "rat, po, 5 mg/kg"}, "in vivo [17]": {"assay": "in vivo", "conditions": "nude, mouse, po, 30 mg/kg"}, "in vivo [18]": {"assay": "in vivo", "conditions": "nude, mouse, po, 100 mg/kg", "remark": "listed apart in the source"}, "in vivo [19]": {"assay": "in vivo", "conditions": "nude, mouse, po, 150 mg/kg"}, "in vivo [20]": {"assay": "in vivo", "conditions": "nude, mouse, iv, 1 mg/kg"}, "in vivo [21]": {"assay": "in vivo", "conditions": "rat, po, 5 mg/kg", "remark": "listed apart in the source"}, "in vivo [22]": {"assay": "in vivo", "conditions": "rat, po, 5 mg/kg", "remark": "listed apart in the source"}, "in vivo [23]": {"assay": "in vivo", "conditions": "nude, mouse, po, 150 mg/kg", "remark": "listed apart in the source"}, "in vivo [24]": {"assay": "in vivo", "conditions": "nude, mouse, po, 150 mg/kg", "remark": "listed apart in the source"}, "in vivo [25]": {"assay": "in vivo", "conditions": "nude, mouse, po, 5 mg/kg", "remark": "listed apart in the source"}, "in vivo [26]": {"assay": "in vivo", "conditions": "nude, mouse, po, 100 mg/kg", "remark": "listed apart in the source"}, "in vivo [27]": {"assay": "in vivo", "conditions": "nude, mouse, po, 30 mg/kg", "remark": "listed apart in the source"}, "in vivo [28]": {"assay": "in vivo", "conditions": "cynomolgus monkey, plasma, po, 5 mg/kg"}, "in vivo [29]": {"assay": "in vivo", "conditions": "nude, mouse, po, 5 mg/kg", "remark": "listed apart in the source"}, "in vivo [30]": {"assay": "in vivo", "conditions": "nude, mouse, plasma, po, 5 mg/kg"}, "in vivo [31]": {"assay": "in vivo", "conditions": "cynomolgus monkey, po, 5 mg/kg", "remark": "listed apart in the source"}, "in vivo [32]": {"assay": "in vivo", "conditions": "cynomolgus monkey, po, 5 mg/kg", "remark": "listed apart in the source"}, "in vivo [33]": {"assay": "in vivo", "conditions": "dog, po, 5 mg/kg", "remark": "listed apart in the source"}, "in vivo [34]": {"assay": "in vivo", "conditions": "rat, plasma, po, 5 mg/kg"}},
  "data": [
    {"smiles": "O=c1cc(-c2ccnc(NC3CCOCC3)n2)ccn1[C@H](CO)c1ccc(F)c(Cl)c1", "values": [
      {"measurement": "AUC", "setting": "in vivo [1]", "result": 2.18, "unit": "µM·h"},
      {"measurement": "bioavailability", "setting": "in vivo [2]", "result": 76, "unit": "%"},
      {"measurement": "Papp A→B", "setting": "in vitro", "result": 4.6, "unit": "×10⁻⁶ cm/s"},
      {"measurement": "clearance", "setting": "in vivo [3]", "result": 63, "unit": "mL/min/kg"}
    ]},
    {"smiles": "O=c1cc(-c2ccnc(NC3CCOCC3)n2)ccn1[C@H](CO)c1ccc(Cl)c(F)c1", "values": [
      {"measurement": "clearance", "setting": "in vivo [4]", "result": 39, "unit": "mL/min/kg"},
      {"measurement": "half-life", "setting": "in vivo [5]", "result": 1.55, "unit": "h"},
      {"measurement": "clearance", "setting": "in vivo [6]", "result": 12, "unit": "mL/min/kg"},
      {"measurement": "AUC", "setting": "in vivo [1]", "result": 3.05, "unit": "µM·h"},
      {"measurement": "AUC", "setting": "in vivo [7]", "result": 129, "unit": "µM·h"},
      {"measurement": "bioavailability", "setting": "in vivo [8]", "result": 139, "unit": "%"},
      {"measurement": "AUC", "setting": "in vivo [9]", "result": 46.8, "unit": "µM·h"},
      {"measurement": "AUC", "setting": "in vivo [10]", "result": 175, "unit": "µM·h"},
      {"measurement": "half-life", "setting": "in vivo [11]", "result": 2.39, "unit": "h"},
      {"measurement": "bioavailability", "setting": "in vivo [12]", "result": 139, "unit": "%"},
      {"measurement": "bioavailability", "setting": "in vivo [2]", "result": 66, "unit": "%"},
      {"measurement": "bioavailability", "setting": "in vivo [13]", "result": 46, "unit": "%"},
      {"measurement": "AUC", "setting": "in vivo [14]", "result": 4.87, "unit": "µM·h"},
      {"measurement": "clearance", "setting": "in vivo [15]", "result": 18, "unit": "mL/min/kg"},
      {"measurement": "bioavailability", "setting": "in vivo [16]", "result": 44, "unit": "%"},
      {"measurement": "half-life", "setting": "in vivo [17]", "result": 2.33, "unit": "h"},
      {"measurement": "half-life", "setting": "in vivo [18]", "result": 1.71, "unit": "h"},
      {"measurement": "bioavailability", "setting": "in vivo [19]", "result": 127, "unit": "%"},
      {"measurement": "clearance", "setting": "in vivo [20]", "result": 40, "unit": "mL/min/kg"},
      {"measurement": "Cmax", "setting": "in vivo [21]", "result": 1.49, "unit": "µM"},
      {"measurement": "half-life", "setting": "in vivo [22]", "result": 1.16, "unit": "h"},
      {"measurement": "Cmax", "setting": "in vivo [23]", "result": 67.7, "unit": "µM"},
      {"measurement": "Papp A→B", "setting": "in vitro", "result": 11.3, "unit": "×10⁻⁶ cm/s"},
      {"measurement": "half-life", "setting": "in vivo [24]", "result": 1.97, "unit": "h"},
      {"measurement": "half-life", "setting": "in vivo [25]", "result": 3.52, "unit": "h"},
      {"measurement": "Cmax", "setting": "in vivo [26]", "result": 38.9, "unit": "µM"},
      {"measurement": "Cmax", "setting": "in vivo [27]", "result": 20.2, "unit": "µM"},
      {"measurement": "AUC", "setting": "in vivo [28]", "result": 3.3, "unit": "µM·h"},
      {"measurement": "Cmax", "setting": "in vivo [29]", "result": 3.12, "unit": "µM"},
      {"measurement": "AUC", "setting": "in vivo [30]", "result": 5.4, "unit": "µM·h"},
      {"measurement": "Cmax", "setting": "in vivo [31]", "result": 0.98, "unit": "µM"},
      {"measurement": "bioavailability", "setting": "in vivo [32]", "result": 22, "unit": "%"},
      {"measurement": "clearance", "setting": "in vivo [3]", "result": 33, "unit": "mL/min/kg"},
      {"measurement": "Cmax", "setting": "in vivo [33]", "result": 2.91, "unit": "µM"},
      {"measurement": "AUC", "setting": "in vivo [34]", "result": 2.15, "unit": "µM·h"}
    ]},
    {"smiles": "O=c1cc(-c2ccnc(NC3CCOCC3)n2)ccn1[C@H](CO)c1cccc(F)c1", "values": [
      {"measurement": "AUC", "setting": "in vivo [1]", "result": 1.72, "unit": "µM·h"},
      {"measurement": "bioavailability", "setting": "in vivo [2]", "result": 36, "unit": "%"},
      {"measurement": "Papp A→B", "setting": "in vitro", "result": 5.5, "unit": "×10⁻⁶ cm/s"},
      {"measurement": "clearance", "setting": "in vivo [3]", "result": 39, "unit": "mL/min/kg"}
    ]},
    {"smiles": "O=c1cc(-c2ccnc(NC3CCOCC3)n2)ccn1[C@H](CO)c1cccc(Cl)c1", "values": [
      {"measurement": "AUC", "setting": "in vivo [1]", "result": 0.59, "unit": "µM·h"},
      {"measurement": "bioavailability", "setting": "in vivo [2]", "result": 38, "unit": "%"},
      {"measurement": "Papp A→B", "setting": "in vitro", "result": 8.5, "unit": "×10⁻⁶ cm/s"},
      {"measurement": "clearance", "setting": "in vivo [3]", "result": 114, "unit": "mL/min/kg"}
    ]}
  ]
}
